“Also recorded” adds a separate entry of the source. *1 amine or outer side, *2 acyl side, *3 side chain or, on linkers, in order; H or OH if unused. Where a SMILES comes first, the peptide text is derived from it. [ ]: non-standard residue; d: D form. The star is where a group is joined. Exatecan = CC[C@@]1(O)C(=O)OCc2c1cc1n(c2=O)Cc2c-1nc1cc(F)c(C)c3c1c2[C@@H](N*)CC3; Hexanoyl(6-maleimido) = O=C1C=CC(=O)N1CCCCCC(=O)*; NHCH2OCH2CO = O=C(COCN[*:1])[*:2]
T1: mouse surface Sp17 protein expressed on the mouse ovarian cancer cell line ID8 (Mus musculus, UniProt Q62252)
T1 construct: endogenous in cells; host or cells: ID8 mouse ovarian cancer cell line
T1 sequence (Q62252 1-149): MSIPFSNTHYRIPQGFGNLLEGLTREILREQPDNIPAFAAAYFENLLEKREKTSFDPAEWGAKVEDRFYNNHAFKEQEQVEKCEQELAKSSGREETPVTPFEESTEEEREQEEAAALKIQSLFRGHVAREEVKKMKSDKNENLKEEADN

T2: recombinant 6His-Sp17 protein (Homo sapiens, UniProt Q15506)
T2 sequence (Q15506 1-151): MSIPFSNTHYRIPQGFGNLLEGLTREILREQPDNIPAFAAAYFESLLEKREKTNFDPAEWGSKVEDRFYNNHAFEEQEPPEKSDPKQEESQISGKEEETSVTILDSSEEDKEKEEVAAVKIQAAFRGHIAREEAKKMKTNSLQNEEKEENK

T3: Sp17 protein (Homo sapiens, UniProt Q15506)
T3 sequence (Q15506 1-151): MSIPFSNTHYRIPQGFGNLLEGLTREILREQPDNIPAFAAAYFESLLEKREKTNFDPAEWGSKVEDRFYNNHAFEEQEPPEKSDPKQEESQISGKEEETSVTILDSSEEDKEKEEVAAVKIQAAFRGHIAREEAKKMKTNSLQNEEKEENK

B1: chAB2: mouse-human chimeric anti-Sp17 monoclonal antibody: human VH/VL (SEQ ID NO: 3, 4) in mouse IgG2a heavy chain and mouse kappa light chain (antibody, V domains shown)
VH: QVQLQQSGAEVKKPGSSVKVSCKASGGTFSSYAISWVRQAPGQGLEWMGRIIPILGIANYAQKFQGRVTITADKSTSTAYMELSSLRSEDTAVYYCARPSEEVVAAYGAFDIWGQGTTVTVSS
VL: EIVLTQSPLSLPVRPGEPASISCRASQSLLRSDGFNYLDWYLQKPGQSPQLLVYLGSNRASGVPDRFSGSGSGTDFTLKISRVEAEDVGVYYCMQAVQTPYIFGQGTKLEIK
modifications: mouse IgG2a and kappa constant regions

Experiments:
[1] = tested on: SK-OV-3 cells; test: Cytotoxicity assay (luminescence) against SK-OV-3 cells; conditions: 5 or 6 days
Protocol: SK-OV-3 cells were seeded at 1000, 2000, or 3000 cells per well and incubated overnight in advance of a cytotoxicity assay. […] The SK-OV-3 cells were treated with various concentrations of the SP17-AB2 antibody, the SP17-AB2-DXD immunoconjugate, a control human IgG4 antibody (hIgG4), or deruxtecan alone (DXD). The cells were incubated for 5 or 6 additional days, and cytotoxicity was then measured using a luminescence assay and EnVision™ plate reader (PerkinElmer, Massachusetts, United States).

[2] = tested on: ID8 cells; test: Cytotoxicity assay against ID8 cells; type: cell-based, mouse; conditions: 3 days
Protocol: […] The cells were then treated with various concentrations of either the SP17-AB2 antibody, the SP17-AB2-DXD immunoconjugate, hIgG4, or deruxtecan alone. The cells were incubated for 3 additional days, and then cytotoxicity was measured.

[3] = target: T1, mouse surface Sp17 protein expressed on the mouse ovarian cancer cell line ID8; test: Flow cytometry of ID8 cells labeled with chAB2 and anti-mouse FITC antibody; type: cell-based; conditions: relative to anti-mouse FITC antibody alone
Protocol: FIG. 4 consists of three panels. The left panel is a graph that depicts flow cytometry results for ID8 cells incubated with an anti-mouse fluorescein isothiocyanate (FITC) antibody, but without a primary antibody. The middle panel is a graph that depicts flow cytometry results for ID8 cells labeled with the anti-Sp17 antibody chAB2 and the anti-mouse FITC antibody.
(§1) The nucleotide sequences encoding the VH and VL regions of Example 1 were cloned into a mouse IgG2a heavy chain gene and a mouse kappa light chain gene, respectively, and expressed in CHO—S cells to produce a mouse-human chimeric antibody, which was named chAB2. Successful generation of the antibody was confirmed by SDS-PAGE and western blotting using anti-mouse heavy and light chain antibodies and recombinant Sp17 protein (FIGS. 2 & 3).

[4] = tested on: normal tissue microarray of 33 normal tissues; test: Immunohistochemistry on a normal tissue microarray (specificity); conditions: 2-3 human donors per tissue
Protocol: The specificity of the chAB2 antibody for Sp17 was determined with immunohistochemistry on a normal tissue microarray, which consisted of 33 normal tissues obtained from 2-3 human donors per tissue. The normal tissues included brain, eye, adrenal gland, hypophyseal, thyroid, parathyroid, tonsil, thymus, spleen, heart, lung, larynx, esophagus, stomach, small intestine, colon, liver, pancreas, salivary gland, kidney, bone, skeletal, skin, peripheral nerve, mesothelial, breast, ovary, endometrium, cervix, testis, and prostate.

[5] = target: T2, recombinant 6His-Sp17 protein; test: Surface plasmon resonance (Biacore T200) of chAB2 binding to recombinant 6His-Sp17; conditions: SPR
Description: The lines correspond, from highest to lowest, to fitted cycles for 300 nanomolar, 100 nanomolar, 50 nanomolar, 25 nanomolar, 12.5 nanomolar, and 6.25 nanomolar concentrations of 6His-Sp17.
as §1

[6] = target: T3, Sp17 protein; test: Western blot detection of Sp17 protein; type: binding; conditions: SDS-PAGE of Sp17 protein
Description: as §1
The VH and VL nucleotide sequences of Example 1 were cloned into a human IgG4 heavy chain gene and a human kappa light chain gene, respectively. A Ser228Pro mutation was introduced in the heavy chain to reduce non-specific Fc receptor gamma binding. The resultant antibody was named SP17-AB2. Successful cloning was confirmed by sequence analysis. The amino acid sequences of the heavy chain and light chain are shown in Table 4, and the Ser228Pro mutation is underlined in SEQ ID NO: 11.

[7] = SK-OV-3 cells at 1000 cells/well
[8] = SK-OV-3 cells at 2000 cells/well
[9] = SK-OV-3 cells at 3000 cells/well

Row | Molecule | IC50 [1, 7] [nM] | Max Cytotoxicity [1, 7] [%] | IC50 [1, 8] [nM] | Max Cytotoxicity [1, 8] [%] | IC50 [1, 9] [nM] | Max Cytotoxicity [1, 9] [%] | Max Cytotoxicity ([2]; ID8 cells at 250 cells/well) [%] | Max Cytotoxicity ([2]; ID8 cells at 500 cells/well) [%] | reactivity to surface Sp17 on ID8 cells by flow cytometry (mean fluorescent intensity) [3] | binding to normal human tissues / cross-reactivity by immunohistochemistry [4] | association rate constant (ka) for chAB2 to Sp17 ([5]; 6.25-300 nanomolar 6His-Sp17) | Kd ([5]; Biacore T200, read-out: dissociation constant (KD)) [nM] | binding/detection of Sp17 protein by western blot [6]
1 | CC[C@@]1(O)C(=O)OCc2c1cc1n(c2=O)Cc2c-1nc1cc(F)c(C)c3c1c2[C@@H](NC(=O)COCNC(=O)CNC(=O)[C@H](Cc1ccccc1)NC(=O)CNC(=O)CNC(=O)CCCCCN1C(=O)C=CC1=O)CC3 [deruxtecan] ({Hexanoyl(6-maleimido)}-GGFG[NHCH2OCH2CO]-Exatecan) | 0.75 | 98 | 1.1 | 97 | 1.2 | 97 | 94 | 93 | – | – | – | – | –
2 | B1 | – | – | – | – | – | – | – | – | reactive to mouse surface Sp17 protein; also recorded: increased mean fluorescent intensity | bound to testis and did not bind to normal tissues; also recorded: lack detectable cross-reactivity | 62,600 per mole per second | ~2 | Sp17 protein was detected
